Results as given in US12503617B2, “Ink jet ink composition and recording method” (SEIKO EPSON CORPORATION, priority 2022, dated 2025).

Assay: Solubility in 100 g of water at 20° C.

## CC(CO)(CO)CO [trimethylolethane]
  solubility: approximately 60 g/100 g of water
